The values that follow come from patent publication US4471113A, “Prodrugs based on phospholipid-nucleoside conjugates” (priority 1982, dated 1984).

Structures are written as SMILES. Where two headings read alike, the source gives them in different places.

Data set [1] concerns deaminase enzymes. To be noted: cited from earlier work; for catabolism via deaminase enzymes: to ineffective metabolites; for protection of parent drug from catabolic degradation: lipophilic fatty acid esters.
Data set [2] concerns mouse myeloma MPC-11 (subclone 66.2) cells. Description: In vitro antiproliferative activity against mouse myeloma MPC-11 (subclone 66.2) cell line. The class given is cell-based.
The nature of data set [3]: Solubilization of suspensions by sonication. Format: physicochemical. The note with it: aqueous suspension at room temperature. From the text:
In the study of biological activity of the compositions of Examples 1f and II-VII, it was first necessary to prepare solutions at room temperature. Suspensions of the compounds of Examples 1f and II-VII were all subjected to known sonication techniques in order to aid solubilization. […] Finally, the best means of solubilization was achieved by mixing the sample with araCDP-L-dipalmitin prior to sonication. In this fashion, mixtures having ratios (by weight) of the mono- to diphosphate linked derivatives from 1:2 through to 3:1 were made up and such mixtures were used for the in vitro inhibition studies.

For data set [4] the following is noted: in vivo studies; cited from earlier work.
The conditions of data set [5]: in vivo; cited from earlier work.
The mark [6] stands for this setting: samples made up in 0.9% saline/0.1 mM Tris, pH 7.1, read-out: ED50 (the source's name).
[7] abbreviates: samples made up in H2O, read-out: ED50 (the source's name).
The mark [8] stands for this setting: solvent not stated, read-out: dose required for 50% inhibition of growth of cells in tissue culture (ED50).

For the compound `Nc1ccn([C@@H]2O[C@H](CO)[C@@H](O)[C@@H]2O)c(=O)n1` [araC, 1-β-D-arabinofuranosylcytosine], the “catabolism via deaminase enzymes” value in data set [1] is listed as “rapid catabolism”. Besides, the IC50 in data set [2] (setting [6]) was determined as 0.85 µM; in data set [2] (setting [7]), 0.99 µM.

Take `CCCCCCCCCCCCCCCC(=O)OC[C@H](COP(=O)(O)OC[C@H]1O[C@@H](n2ccc(N)nc2=O)[C@@H](O)[C@@H]1O)OC(=O)CCCCCCCCCCCCCCC` [araCMP-L-dipalmitin]: in data set [3], the solubilization by sonication entry is reported as “resisted solubilization even when samples were mixed with several types of detergent prior to sonication”.

In the case of `CCCCCCCC/C=C\CCCCCCCC(=O)OC[C@H](COP(=O)(O)OP(=O)(O)OC[C@H]1O[C@@H](n2ccc(N)nc2=O)[C@@H](O)[C@@H]1O)OC(=O)CCCCCCC/C=C\CCCCCCCC` [araCDP-L-diolein, 1-β-D-Arabinofuranosylcytosine-5'-diphosphate-L-1,2-diolein], the IC50 in data set [2] (setting [6]) stood at 43.9 µM; in data set [2] (setting [8]), 62 µM.

In the case of `CCCCCCCCCCCCCCCC(=O)OC[C@H](COP(=O)(O)OP(=O)(O)OC[C@H]1O[C@@H](n2ccc(N)nc2=O)[C@@H](O)[C@@H]1O)OC(=O)CCCCCCCCCCCCCCC` [araCDP-L-dipalmitin], the IC50 in data set [2] (setting [6]) is 42.1 µM; in data set [2] (setting [8]), 65 µM.

On to `CCCCCCCCCCCCCCCC(=O)OC[C@H](COP(=O)(O)OP(=O)(O)OC[C@H]1O[C@@H](n2ccc3c(N)ncnc32)[C@H](O)[C@@H]1O)OC(=O)CCCCCCCCCCCCCCC` [TubercidinDP--L-dipalmitin, Tubercidin-5'-diphosphate-L-1,2-dipalmitin], for which, in data set [2] (setting [7]), the IC50 is 5 µM.

Turning to `CCCCCCCCCCCCCCCCCC(=O)OC[C@H](COP(=O)(O)OP(=O)(O)OC[C@H]1O[C@@H](n2ccc(N)nc2=O)[C@@H](O)[C@@H]1O)OC(=O)CCCCCCCCCCCCCCCCC` [araCDP-L-distearin, 1-β-D-Arabinofuranosylcytosine-5'-diphosphate-L-1,2-distearin], the solubilization by sonication entry in data set [3] was “remained slightly opalescent”. Further, the IC50 in data set [2] (setting [6]) worked out at 168 µM; in data set [2] (setting [8]) it was 195 µM.

Consider `Nc1ncnc2c1ncn2[C@@H]1O[C@H](CO)[C@@H](O)[C@@H]1O` [araA, 9-β-D-arabinofuranosyladenine], for which the “catabolism via deaminase enzymes” value in data set [1] is on record as “rapid catabolism”.

With `CCCCC(=O)OC[C@H]1O[C@@H](n2cnc3c(N)ncnc32)[C@@H](O)[C@@H]1O` [5'-O-valeryl-araA], in data set [1], the “protection of parent drug from catabolic degradation” value (“protection of parent drug” below) was “protected the parent drug from catabolic degradation”.

Take `CCCCCCCCCCCCCC(=O)OC[C@H](COP(=O)(O)OP(=O)(O)OC[C@H]1O[C@@H](n2ccc(N)nc2=O)[C@@H](O)[C@@H]1O)OC(=O)CCCCCCCCCCCCC` [araCDP-L-dimyristin]: the IC50 in data set [2] (setting [6]) turned out to be 13.1 µM; in data set [2] (setting [8]) it was 15 µM.

For the compound `CCCCCCCCCCCCCCCC(=O)OC[C@H]1O[C@@H](n2ccc(N)nc2=O)[C@@H](O)[C@@H]1O` [5'-O-palmitoyl-araC], the “therapeutic advantage in vivo” value in data set [4] was “no therapeutic advantages”. Besides, in data set [1], the “protection of parent drug” value was “protected the parent drug from catabolic degradation”.

Regarding `Nc1ccn([C@@H]2O[C@H](COC(=O)C34CC5CC(CC(C5)C3)C4)[C@@H](O)[C@@H]2O)c(=O)n1` [5'-O-adamantoyl-araC], the “protection of parent drug” value in data set [1] is “protected the parent drug from catabolic degradation”.

With `O=c1ccn([C@@H]2O[C@H](CO)[C@@H](O)[C@@H]2O)c(=O)[nH]1` [araU, 1-β-D-arabinofuranosyluracial], the “appearance of metabolite in urine” value in data set [5] is reported as “appears rapidly in human urine”.
